From paper PMC12567141, “Design, Synthesis and Biological Evaluation of Pyrazolopyrimidine Derivatives as Aryl Hydrocarbon Receptor Antagonists for Colorectal Cancer Immunotherapy” (Pharmaceutics, 2025)
Several values for one entry are separate records, joined by “and”; a condition that tells them apart may be missing. Equal entries are not always repeated. Where two headings read alike, the source gives them in different places.

Key:
MC38 tumor = experiment: In vivo therapy, MC38 syngeneic model; set-up: species or system mice; settings: MC38 model, comparison of 7k and 3′,4′-dimethoxyflavone, 10 mg/kg oral once a day, 18 days
Experimental: In vivo experiments were conducted using 6-week-old male immunocompetent BALB/c and C57BL/6 with 18–20 g body weight (Orient Bio Inc., Seungnam, Republic of Korea). All animal experimental procedures were maintained and used in accordance with the Guidelines for the Care and Use of Laboratory Animals of the Institute of Laboratory Animal Center, Daegu-Gyeongbuk Medical Innovation Foundation (K-MEDI hub). The animal studies were conducted after approval by the institutional reviewer board on the Ethics of Animal Experiments of the Daegu-Gyeongbuk Medical Innovation Foundation (approval number: KMEDI-24041103-01).
Study 1: Antitumor activity of 7k alone in mice with either CT26 syngeneic model or MC38 syngeneic model. Mice were subcutaneously challenged with 5 × 10^5 either MC38 or CT26 cells. […]
The 7k was dissolved in solution including 5% DMSO, 55% DW, and 40% PEG. Tumor size was measured with a caliper at the indicated time points, and tumor volume (mm^3) was calculated using the following formula, tumor volume (mm^3) = d2 × D/2, where d and D are the shortest and longest diameters in mm, respectively.

AhR [1] = target: T1, AhR (Danio rerio, UniProt Q9YGV3); set-up: method as in PMID 34223158, PMID 10913616, PMID 31358358; settings: reported AhR antagonists, Figure 2; cited from earlier work
AhR [2] = experiment: AhR antagonist screening using Tg(cyp1a:egfp) zebrafish; assay type: in vivo; set-up: key to AhR Antagonist Activity at 100 nM: - no inhibition; + weak; ++ mild; +++ moderate; ++++ high; +++++ very high; settings: for AhR Antagonist Activity at 100 nM: extent of GFP reduction in Tg(cyp1a:egfp) zebrafish compared to the TCDD (2 nM) control, 48 h; for AhR antagonistic activity in zebrafish, in words: Tg(cyp1a:egfp) zebrafish, EGFP readout
Experimental: At 30 hpf, Tg(cyp1a:egfp) embryos were placed in a 2-mL screw-capped glass vial with five embryos per vial. Each vial contained 1 mL of E3 media (5 mM NaCl, 0.17 mM KCl, 0.33 mM CaCl2·2H2O and 0.4 mM MgCl2·6H2O, pH 7.2) and supplemented with 2 nM TCDD (1746-01-6; AccuStandard Inc., New Haven, NH, USA) dissolved in DMSO. The compounds were subsequently diluted and individually introduced into the vials, achieving a final concentration of 0.1% DMSO. The embryos were then incubated for 48 h and then embryonic EGFP expression was evaluated using a fluorescent stereomicroscope (SteREO Discovery V8; Zeiss, Oberkochen, BW, Germany). As a positive control, StemRegenin1 (72342, […] Technologies, Vancouver, BC, Canada) was employed.
To evaluate AhR antagonistic activity, we conducted an AhR antagonist assay using transgenic zebrafish. Zebrafish have garnered significant attention as model organisms for drug discovery because they share metabolic pathways with mammals. […] Therefore, we synthesized more meta substituted phenyl derivatives. […] We also synthesized heteroaromatic derivatives including pyrimidine and pyridine at 5-position; however, their activities were decreased.

AhR [3] = target: T1, AhR; experiment: IC50 determination, Cyp1a dual luciferase reporter assay in transfected COS-7 cells; assay type: cell-based; settings: AhR2/ARNT-1c/Cyp1a-luciferase, TCDD 10 nM
Experimental: All experiments were conducted as described previously unless stated otherwise. COS-7 cells were seeded onto 24-well plate until approximately 65% confluency. The cells were transfected with ARNT-1c expression plasmid (50 ng), AhR2 expression plasmid (5 ng), Cyp1a-firefly luciferase reporter plasmid (20 ng) and pRL-TK Renilla luciferase plasmid (2 ng) using Lipofectamine 3000 (Thermo Fisher Scientific) according to the manufacturer’s protocol. The pEGFP-C1 plasmid (Clontech, Tempe, AZ, USA) was used to assess the transfection efficiency. At 5 h post transfection, serially diluted test compounds at indicated concentration were added to the cells. Simultaneously, TCDD (10 nM) or indicated compounds with the highest concentration were added in the control wells. At 1 h post compound treatment, TCDD (10 nM) was added to all wells except the control wells. At 18 h post TCDD treatment, the medium was removed, and the cells washed with Dulbecco’s phosphate buffered saline (DPBS) and harvested using 1x Passive Lysis Buffer (Promega, Madison, WI, USA). The dual luciferase assay was carried out using a Dual-Luciferase Reporter Assay System (Promega, Madison, WI, USA) and an Orion L Microplate Luminometer (Titertek Berthold, Pforzheim, BW, Germany) as per manufacturer’s protocol. The relative light unit (RLU) values were normalized and expressed as toxic induced ratio (TIR). IC50 was determined using Prism 9.0 (GraphPad Software).

colorectal cancer cells = experiment: Cell viability assay (CCK-8), colorectal cancer cells; assay type: cell-based; settings: 24 h
Experimental: (§1) Chinese hamster ovary CHO cells, mouse fibroblast L929 cells, normal colon CCD18-Co cells, monkey kidney fibroblast COS-7 cells, colorectal cancer cells including HCT-116, RKO, SW480, SW620, CT26, and MC38 cells were purchased from ATCC (American Type Culture Collection). CHO, L929, Cos-7, and all cancer cells were maintained in RPMI 1640 or DMEM supplemented with 10% FBS (Gibco FBS; Thermo Fisher Scientific, Hanover Park, IL, USA) and 1% streptomycin/penicillin. CCD18-Co cells were cultured in high-glucose Dulbecco modified Eagle medium containing 10% FBS and 1% streptomycin/penicillin. All cells were grown in 5% CO2 at 37 °C. Mycoplasma testing was regularly performed every month using the BioMycoX Mycoplasma PCR Detection Kit (CellSafe, Yongin, Republic of Korea).
(§2) Cell viability was analyzed using a Cell Counting Kit-8 (Dojindo molecular technologies, Rockville, MD, USA). Cells were seeded in 96-well plates and treated with different concentrations of 7k. At the indicated time points, CCK-8 (10 μL/well) reagents were added to the cells, followed by further incubation at 37 °C for 90 min. The absorbance at 450 nm was measured using a plate reader (BioTek instruments, Winooski, VT, USA).

[4] = test system: normal cells (CHO, L929, CCD-18Co); experiment: Cell viability assay (CCK-8), normal cells; assay type: cell-based; settings: 24 h, 7k: CHO, SR-1: CCD-18Co
Experimental: as §1, §2

T1 sequence (Q9YGV3 1-1027): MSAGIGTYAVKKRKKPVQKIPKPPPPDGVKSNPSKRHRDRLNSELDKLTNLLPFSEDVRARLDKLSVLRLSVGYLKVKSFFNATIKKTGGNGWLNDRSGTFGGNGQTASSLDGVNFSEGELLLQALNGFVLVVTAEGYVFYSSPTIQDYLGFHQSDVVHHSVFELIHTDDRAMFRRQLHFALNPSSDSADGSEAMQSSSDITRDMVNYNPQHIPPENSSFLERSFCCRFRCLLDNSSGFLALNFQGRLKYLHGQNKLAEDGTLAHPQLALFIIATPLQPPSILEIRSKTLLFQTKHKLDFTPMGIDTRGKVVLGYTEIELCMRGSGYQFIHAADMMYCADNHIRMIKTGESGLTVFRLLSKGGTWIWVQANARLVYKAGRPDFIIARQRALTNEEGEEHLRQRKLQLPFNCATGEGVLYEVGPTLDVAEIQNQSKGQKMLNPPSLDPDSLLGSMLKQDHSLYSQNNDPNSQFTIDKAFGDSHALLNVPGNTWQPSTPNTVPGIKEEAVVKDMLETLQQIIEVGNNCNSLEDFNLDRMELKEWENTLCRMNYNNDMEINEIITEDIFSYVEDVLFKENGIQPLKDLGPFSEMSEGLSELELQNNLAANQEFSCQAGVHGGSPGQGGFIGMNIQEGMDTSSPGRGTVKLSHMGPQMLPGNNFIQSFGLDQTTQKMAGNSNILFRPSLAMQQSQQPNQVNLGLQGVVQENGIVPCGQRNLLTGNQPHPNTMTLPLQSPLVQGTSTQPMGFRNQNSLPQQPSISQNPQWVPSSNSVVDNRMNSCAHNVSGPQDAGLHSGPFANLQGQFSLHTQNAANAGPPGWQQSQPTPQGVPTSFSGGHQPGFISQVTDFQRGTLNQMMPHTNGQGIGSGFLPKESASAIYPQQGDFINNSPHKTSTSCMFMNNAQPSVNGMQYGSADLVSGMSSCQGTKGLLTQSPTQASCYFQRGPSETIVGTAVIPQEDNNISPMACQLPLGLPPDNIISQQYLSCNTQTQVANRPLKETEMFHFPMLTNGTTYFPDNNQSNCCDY
T1 sequence (Q64FF9 1-503 partner): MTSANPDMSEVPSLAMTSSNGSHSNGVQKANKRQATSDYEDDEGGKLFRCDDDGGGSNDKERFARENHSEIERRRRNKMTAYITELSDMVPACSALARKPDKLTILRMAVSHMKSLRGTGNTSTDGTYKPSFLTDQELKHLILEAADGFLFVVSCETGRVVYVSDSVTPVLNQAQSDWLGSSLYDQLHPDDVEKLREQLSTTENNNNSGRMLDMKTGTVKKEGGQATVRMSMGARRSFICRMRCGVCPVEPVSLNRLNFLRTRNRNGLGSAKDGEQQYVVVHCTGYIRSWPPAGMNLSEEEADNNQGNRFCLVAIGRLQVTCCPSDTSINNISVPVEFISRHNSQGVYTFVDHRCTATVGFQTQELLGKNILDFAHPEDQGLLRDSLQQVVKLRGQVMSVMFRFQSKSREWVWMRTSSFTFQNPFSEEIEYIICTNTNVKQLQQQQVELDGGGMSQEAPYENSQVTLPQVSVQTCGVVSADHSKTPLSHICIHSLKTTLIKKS

With `COc1ccc(-c2cc(=O)c3ccccc3o2)cc1OC` [3′,4′-dimethoxyflavone, reference compound] as the molecule, how does the “tumor growth inhibition (TGI)” value (MC38 tumor) read?
Its value is 37%.

For `C[C@@H](CO)NC(=O)c1cc(-c2ccc(Cl)cc2)nn(-c2cnn(C)c2)c1=O` [BAY 2416964], which IC50 (AhR [1]) is on record?
Its IC50 is 341 nM.

With `C[C@@H](CO)NC(=O)c1cc(-c2ccc(Cl)cc2)nn(-c2cccc(F)c2)c1=O` [BAY-128] as the molecule, how does the IC50 (AhR [1]) read?
Its IC50 is 39.9 nM.

For `CC(C)n1cc2nc(-c3ccccc3)nc(NCCc3c[nH]c4ccccc34)c2n1` [Compound 7a], which “AhR Antagonist Activity at 100 nM” value (AhR [2]) is on record?
Its value is “+”.

For `CC(C)n1cc2nc(-c3ccc(C#N)cc3)nc(NCCc3c[nH]c4ccccc34)c2n1` [Compound 7b], which “AhR antagonistic activity in zebrafish, in words” value (“AhR antagonistic activity” for short) (AhR [2]) is on record?
The value was “better activity compared with those of the hit compound”.

What about the “AhR Antagonist Activity at 100 nM” value (AhR [2]) of the same molecule?
The value was “++”.

Which results are given for `CC(C)n1cc2nc(-c3cccc(C#N)c3)nc(NCCc3c[nH]c4ccccc34)c2n1` [Compound 7c]?
AhR Antagonist Activity at 100 nM (AhR [2]): ++++; IC50 (AhR [3]): 171 nM

Which “AhR antagonistic activity” value (AhR [2]) does the source give for `CC(=O)c1cccc(-c2nc(NCCc3c[nH]c4ccccc34)c3nn(C(C)C)cc3n2)c1` [Compound 7d] here?
The value was “didn’t show AhR inhibition”.

And the “AhR Antagonist Activity at 100 nM” value (AhR [2])?
Its value is “-”.

For `CC(C)n1cc2nc(-c3cccc(C(F)(F)F)c3)nc(NCCc3c[nH]c4ccccc34)c2n1` [Compound 7e], which “AhR antagonistic activity” value (AhR [2]) is on record?
Its value is “didn’t show AhR inhibition”.

And the “AhR Antagonist Activity at 100 nM” value (AhR [2])?
Its value is “-”.

For `CC(C)n1cc2nc(-c3cccc(N)c3)nc(NCCc3c[nH]c4ccccc34)c2n1` [Compound 7f], which “AhR antagonistic activity” value (AhR [2]) is on record?
The value was “didn’t show AhR inhibition”.

What about the “AhR Antagonist Activity at 100 nM” value (AhR [2]) of the same molecule?
The value was “-”.

With `CCn1cc2nc(-c3cccc(C#N)c3)nc(NCCc3c[nH]c4ccccc34)c2n1` [Compound 7g] as the molecule, how does the “AhR antagonistic activity” value (AhR [2]) read?
The value was “lower activity than that of the isopropyl compound”.

And the “AhR Antagonist Activity at 100 nM” value (AhR [2])?
The value was “+++”.

With `CCCCn1cc2nc(-c3cccc(C#N)c3)nc(NCCc3c[nH]c4ccccc34)c2n1` [Compound 7h] as the molecule, how does the “AhR antagonistic activity” value (AhR [2]) read?
Its value is “lower activity than that of the isopropyl compound”.

And the “AhR Antagonist Activity at 100 nM” value (AhR [2])?
Its value is “+++”.

Which “AhR antagonistic activity” value (AhR [2]) does the source give for `CC(C)n1cc2nc(-c3cccc(C#N)c3)nc(NCCc3c[nH]c4ccc(O)cc34)c2n1` [Compound 7i] here?
The value was “decreased AhR inhibition”.

What about the “AhR Antagonist Activity at 100 nM” value (AhR [2]) of the same molecule?
The value was “-”.

With `CC(C)n1cc2nc(-c3cccc(F)c3)nc(NCCc3c[nH]c4ccccc34)c2n1` [Compound 7j] as the molecule, how does the “AhR Antagonist Activity at 100 nM” value (AhR [2]) read?
Its value is “++++”.

And the IC50 (AhR [3])?
Its IC50 is 412 nM and 413 nM.

For `CC(C)n1cc2nc(-c3cccc(OC(F)(F)F)c3)nc(NCCc3c[nH]c4ccccc34)c2n1` [Compound 7l], which “AhR antagonistic activity” value (AhR [2]) is on record?
The value was “decreased activities”.

What about the “AhR Antagonist Activity at 100 nM” value (AhR [2]) of the same molecule?
The value was “+++”.

What about the IC50 (AhR [3]) of the same molecule?
The IC50 was 301 nM.

Which “AhR antagonistic activity” value (AhR [2]) does the source give for `CC(C)n1cc2nc(-c3cccc(C(=O)OC(C)(C)C)c3)nc(NCCc3c[nH]c4ccccc34)c2n1` [Compound 7m] here?
The value was “decreased activities”.

What about the “AhR Antagonist Activity at 100 nM” value (AhR [2]) of the same molecule?
Its value is “-”.

For `CC(C)c1cnn2c(N[C@H]3CCc4[nH]c5ccccc5c4C3)nc(-c3cncc(F)c3)nc12` [IK-175], which IC50 (AhR [1]) is on record?
Its IC50 is under 500 nM.

With `Cc1ccccc1-c1cc2cc(NC(=O)c3ccnn3C)ccc2[nH]1` [PX-A24590] as the molecule, how does the IC50 (AhR [1]) read?
Its IC50 is 60 nM.

With `CC(C)n1cnc2c(NCCc3ccc(O)cc3)nc(-c3csc4ccccc34)nc21` [SR-1, StemRegenin 1, reference compound] as the molecule, how does the “AhR Antagonist Activity at 100 nM” value (AhR [2]) read?
Its value is “+++”.

And the IC50 (AhR [3])?
The IC50 was 198 nM.

What about the “cell proliferation / viability of colorectal cancer cells” value (colorectal cancer cells) of the same molecule?
The value was “reduced the viability of colorectal cancer cells”.

And the “cell viability of normal cells” value [4]?
The value was “little effect”.

What about the IC50 (AhR [1]) of the same molecule?
Its IC50 is 127 nM.
